The source of these data is publication PMC12063043, “Exploring Tyramine's Role in the Formation of Supramolecular Adducts with Nonsteroidal Anti‐Inflammatory Drugs” (Chemistry (Weinheim an Der Bergstrasse, Germany), 2025).

Values after ≈ are worked out from the molar mass of the structure shown.

The nature of series [1]: Aqueous solubility tests by solution 1H NMR. The settings on record: for solubility at 3 days: deionized water, water, thermodynamic from solid.
Series [2] in a line: pKa of the co-former TYA and the APIs, and ΔpKa rule. The class given is physicochemical. Particulars: heading: ΔpKa [= pKa – pKa]; for the adduct of the API (acid) with TYA (base).
For series [3] the following is noted: ref PubChem; cited from earlier work.

Consider `CC(C(=O)O)c1ccc(-c2ccccc2)c(F)c1` (racemic) [FLU, (±)‐2‐(2‐fluorobiphenyl‐4‐yl)propionic acid], for which, in series [1], the concentration in solution (solubility at 3 days) was 19 ± 2 µg/mL (≈ 77.8 µM). The same molecule gave a ΔpKa in series [2] of 5.44.

In the case of `O=C(O)c1cc(-c2ccc(F)cc2F)ccc1O` [DIF, 2′,4′‐difluoro‐4‐hydroxy‐[1,1′‐biphenyl]‐3‐carboxylic acid], the concentration in solution in series [1] (solubility at 3 days) came to 28 ± 2 µg/mL (≈ 112 µM). The molecule also gave a ΔpKa in series [2] of 6.36.

For `NCCc1ccc(O)cc1` [TYA, 4‐(2‐aminoethyl)phenol], the pKa in series [3] was 9.66^[ ^a ^].

With `NCCc1ccc(O)cc1.O=C(O)c1cc(-c2ccc(F)cc2F)ccc1O` [DIF-TYA Form II], the “Increase in aqueous solubility of adduct versus pure API” value in series [1] (aqueous solution, adduct versus pure API) came to 17 fold. The Aqueous solubility – broadly, how much of the substance goes into solution per volume – in series [1] (deionized H2O, stirred 3 days, filtered, 1H NMR at 298 K with TSP internal standard, concentration of the drug in solution, average of three measurements ± standard deviation) came to 473 ± 79 µg/mL.
